Test results from ChEMBL document CHEMBL1201862, “PubChem BioAssay data set” (2004).
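Cells were grown in 96-well plates and exposed to each compound for 48 hours at five concentrations; endpoints were interpolated linearly between bracketing concentrations, or set to the highest concentration if not reached. Here, GI50 denotes the concentration required for 50% inhibition of growth.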 Calls of active or inactive are those of the source. Rule as the data show it: active = GI50 up to about 1.1 µM and inactive = higher.

What was measured:
Assay in all cases: growth of human tumour cells (NCI), 48 h
A498 = test system: A498
HT-29 = test system: HT-29
SNB-75 = test system: SNB-75
IGROV-1 = test system: IGROV-1
HCT-116 = test system: HCT-116
HCC 2998 = test system: HCC 2998
SN12C = test system: SN12C
UACC-257 = test system: UACC-257
UO-31 = test system: UO-31
M14 = test system: M14
SK-MEL-5 = test system: SK-MEL-5
SK-MEL-28 = test system: SK-MEL-28
NCI-H226 = test system: NCI-H226
HCT-15 = test system: HCT-15
LOX IMVI = test system: LOX IMVI
U-251 = test system: U-251
NCI-H460 = test system: NCI-H460
MCF7 = test system: MCF7
BT-549 = test system: BT-549
NCI/ADR-RES = test system: NCI/ADR-RES

| Structure (SMILES) | GI50 (A498) | GI50 (HT-29) | GI50 (SNB-75) | GI50 (IGROV-1) | GI50 (HCT-116) | GI50 (HCC 2998) | GI50 (SN12C) | GI50 (UACC-257) | GI50 (UO-31) | GI50 (M14) | GI50 (SK-MEL-5) | GI50 (SK-MEL-28) | GI50 (NCI-H226) | GI50 (HCT-15) [µM] | GI50 (LOX IMVI) | GI50 (U-251) | GI50 (NCI-H460) | GI50 (MCF7) | GI50 (BT-549) | GI50 (NCI/ADR-RES) |
| --- | --- | --- | --- | --- | --- | --- | --- | --- | --- | --- | --- | --- | --- | --- | --- | --- | --- | --- | --- | --- |
| CCOC(=O)C(C(=O)OCC)c1cc(-c2cc3ccccc3o2)oc(=O)c1C#N | 25.3 µM (inactive) | 18.6 µM (inactive) | 26.2 µM (inactive) | 24.9 µM (inactive) | 21.3 µM (inactive) | 19.5 µM (inactive) | 24.4 µM (inactive) | 25.6 µM (inactive) | 32.2 µM (inactive) | 20.8 µM (inactive) | 32.5 µM (inactive) | 25.1 µM (inactive) | 21.1 µM (inactive) | 19.1 | 17.9 µM (inactive) | 16.2 µM (inactive) | 30.2 µM (inactive) | – | – | – |
| Brc1ccccc1-c1ncc(-c2ccccc2)o1 | 23 µM (inactive) | 29.9 µM (inactive) | 20.6 µM (inactive) | 19.2 µM (inactive) | 34.8 µM (inactive) | 30 µM (inactive) | 55.2 µM (inactive) | 30.3 µM (inactive) | 43.7 µM (inactive) | 29.6 µM (inactive) | 18.1 µM (inactive) | 40.6 µM (inactive) | – | 7.36 | 17.1 µM (inactive) | 17 µM (inactive) | 29.9 µM (inactive) | 3.47 µM (inactive) | 29.2 µM (inactive) | 30.8 µM (inactive) |
| CCOC(=O)C(OP(=O)(OCC)OCC)C(F)(F)F (stereo not drawn) | > 100 µM (inactive) | > 100 µM (inactive) | > 100 µM (inactive) | – | > 100 µM (inactive) | > 100 µM (inactive) | > 100 µM (inactive) | > 100 µM (inactive) | > 100 µM (inactive) | > 100 µM (inactive) | – | > 100 µM (inactive) | > 100 µM (inactive) | > 100 | > 100 µM (inactive) | > 100 µM (inactive) | > 100 µM (inactive) | > 100 µM (inactive) | > 100 µM (inactive) | – |
| O=C(NC(Cc1ccc(I)cc1)C(=O)O)c1ccc(Br)cc1 (stereo not drawn) | > 100 µM (inactive) | > 100 µM (inactive) | 30.1 µM (inactive) | > 100 µM (inactive) | > 100 µM (inactive) | 25.9 µM (inactive) | > 100 µM (inactive) | > 100 µM (inactive) | > 100 µM (inactive) | – | > 67.1 µM (inactive) | > 100 µM (inactive) | > 100 µM (inactive) | > 100 | > 100 µM (inactive) | 65.8 µM (inactive) | 98.6 µM (inactive) | > 60.4 µM (inactive) | – | > 100 µM (inactive) |
| Cc1cccc(C(O)c2cccnc2)c1O (stereo not drawn) | – | > 100 µM (inactive) | > 100 µM (inactive) | > 100 µM (inactive) | > 100 µM (inactive) | 44.2 µM (inactive) | > 100 µM (inactive) | 66.7 µM (inactive) | > 100 µM (inactive) | – | 76.4 µM (inactive) | > 100 µM (inactive) | > 100 µM (inactive) | > 100 | > 100 µM (inactive) | > 100 µM (inactive) | > 100 µM (inactive) | > 100 µM (inactive) | > 100 µM (inactive) | > 100 µM (inactive) |
| O=C(c1ccccc1)C1C(c2ccccc2)N1S(=O)(=O)c1ccccc1 (stereo not drawn) | – | > 100 µM (inactive) | > 100 µM (inactive) | > 100 µM (inactive) | > 100 µM (inactive) | > 100 µM (inactive) | > 100 µM (inactive) | – | > 100 µM (inactive) | > 100 µM (inactive) | > 100 µM (inactive) | > 100 µM (inactive) | > 100 µM (inactive) | > 100 | > 100 µM (inactive) | > 100 µM (inactive) | – | > 100 µM (inactive) | > 100 µM (inactive) | > 100 µM (inactive) |
| Nc1nnc2ccc(Cl)cc2[n+]1[O-] | 68.5 µM (inactive) | 42.4 µM (inactive) | > 100 µM (inactive) | 31.8 µM (inactive) | 39.7 µM (inactive) | 40.8 µM (inactive) | > 100 µM (inactive) | 94 µM (inactive) | > 100 µM (inactive) | 39.1 µM (inactive) | 31 µM (inactive) | 62.5 µM (inactive) | > 100 µM (inactive) | 36.2 | 57.5 µM (inactive) | > 100 µM (inactive) | – | 70.1 µM (inactive) | > 100 µM (inactive) | 40.1 µM (inactive) |
| O=c1c(-c2ccccc2)c(SCCN2CCCCCC2)n(-c2ccccc2)c(=S)n1-c1ccccc1 | 19.7 µM (inactive) | – | > 100 µM (inactive) | 45.8 µM (inactive) | – | 3.52 µM (inactive) | – | 86.3 µM (inactive) | – | – | 23.2 µM (inactive) | > 100 µM (inactive) | 94.8 µM (inactive) | 51.3 | 50.7 µM (inactive) | – | 46.8 µM (inactive) | 24.9 µM (inactive) | > 100 µM (inactive) | 68.2 µM (inactive) |
| CC1=CC[C@H](C)C(C)(C)C1/C=C/C(C)=C/CC[C@@]1(CO)[C@H](CCCO)/C(=C(/C)C=O)CC[C@]1(C)O (stereo partly drawn) | – | 2.77 µM (inactive) | – | 11.7 µM (inactive) | – | 2.31 µM (inactive) | 5.68 µM (inactive) | 15.2 µM (inactive) | 8.45 µM (inactive) | 2.07 µM (inactive) | 0.513 µM (active) | 11.4 µM (inactive) | 1.9 µM (inactive) | 7.64 | 0.824 µM (active) | 2.86 µM (inactive) | 1.11 µM (active) | – | – | – |
